Holding throughout (type): cell-based, human
One assay concerns DLD1_ABCA1 cells. Description: Invasion assay (Corning BioCoat Matrigel plates). The conditions noted are these: Rvx-208 with ApoA1 silenced by shApoA1; cells with high ABCA1 levels. How it is done: FIG. 6. A) Proliferation curve in a viability assay carried out by means of XCELLigence technology. The results for the stable cell line overexpressing ABCA1 in the absence and presence of ApoA1 are shown. The cells were treated for 72 hours before the experiment with 40 μg/ml of ApoA1 and with a concentration of 20 μg/ml during acquisition. B) Migration and invasion assays. The method followed was the same as the one described in FIG. 1. (**p-value=0.003; ****p-value<0.0001). C) ABCA1 messenger RNA level (left panel) and ABCA1 protein level (right panel) in the presence and absence of treatment with ApoA1. […]
The inventors were able to confirm said results based on the treatment of DLD1 cells expressing ABCA1 with RVX-208 under the conditions already described in detail in Example 3. […] The levels of caveolin-1, a protein whose increased levels have been associated with increases in cell migration and invasion, were also analyzed in this experiment.
For the purpose of confirming that the effects of RVX-208 in cell phenotype recovery were due to the increase in ApoA-1 expression, the inventors inhibited the expression of said protein by means of transfection of a complementary small RNA, ShApoA1 (FIG. 9). […] Cell viability and proliferation in DLD1 cells (D_NoORF) and D1D1 cell lines expressing increased ApoA1 levels (D_ApoA1 ) were analyzed with the xCELLigence system.

The subject of another assay is apolipoprotein A1. Description: ApoA1 immunodetection by Western blot. The conditions noted are these: RVX-208 (30 μM) versus DMSO carrier. How it is done: (§1) FIG. 7. A) Proliferation curve in a viability assay carried out by means of XCELLigence technology. Growth of DLD1 cells treated with DMSO as the drug carrier and with Rvx-208 (30 μM). The significant differences existing in the slope of the graph, and therefore in the growth dynamics of the treated cells are shown in the right panel (****p-value<0.0001). B) Migration and invasion assays. The method followed was the same as the one described in FIG. 2 (*p-value=0.0407; ****p-value<0.0001). C) Expression levels of proteins E-cadherin and Vimentin in the presence and absence of Rvx-208. Analysis performed by means of quantitative PCR. The relative expression levels normalized with respect to the untreated control are shown. D) ABCA1, ApoA1, caveolin-1, and α-tubulin immunodetection by means of Western blot. α-tubulin acts as load control. The results of the cells treated with Rvx-208 (30 μM) or with the DMSO carrier are shown. E) Cholesterol flux in cells treated with Rvx-208. The inventors were able to confirm said results based on the treatment of DLD1 cells expressing ABCA1 with RVX-208 under the conditions already described in detail in Example 3. […] The levels of caveolin-1, a protein whose increased levels have been associated with increases in cell migration and invasion, were also analyzed in this experiment.
For orientation: Immunoblotting shows a protein as a band on a membrane.

The next assay deals with cholesterol flux. Kind of assay: Cholesterol flux in treated cells. To be noted: treatment with Rvx-208. How it is done: as §1
Assay [1] relates to D1D1 cell lines expressing increased ApoA1 levels (D_ApoA1). Description: Cell viability and proliferation (xCELLigence) with ShApoA1/scramble transfection. To be noted: 30 μM RVX-208, ApoA1 expression not inhibited (Scr+Rvx-208); D_ApoA1 cells. How it is done: FIG. 9: A) Proliferation curve in a viability assay carried out by means of XCELLigence technology. Growth of DLD1 cells treated with DMSO as the drug carrier and with Rvx-208 (30 μM). Control cells (scramble, SCR) are shown in black. Cells transfected with anti-ApoA1 short hairpin are shown in gray. The significant differences existing in the values of the slope of the graphs on the left-hand side, and therefore in the growth dynamics of the treated cells, are shown in the right panels (*p-value=0.0471; **p-value=0.0067; ****p-value<0.0001). B) Invasion assays in cells with silenced ApoA1 expression. For the purpose of confirming that the effects of RVX-208 in cell phenotype recovery were due to the increase in ApoA-1 expression, the inventors inhibited the expression of said protein by means of transfection of a complementary small RNA, ShApoA1 (FIG. 9). Twenty-four hours after transfection with ShApoA1 expression vector, the inventors started treatment with 30 μM of RVX-208. Cell viability and proliferation in DLD1 cells (D_NoORF) and D1D1 cell lines expressing increased ApoA1 levels (D_ApoA1 ) were analyzed with the xCELLigence system.

Regarding `COc1cc(OC)c2c(=O)[nH]c(-c3cc(C)c(OCCO)c(C)c3)nc2c1` [RVX-208, 2-(4-(2-hydroxyethoxy)-3,5-dimethylphenyl)-5,7-dimethoxyquinazolin-4(3H)-one], the “effectiveness of treatment in terms of a decrease in cell invasion capacities” value in the assay with DLD1_ABCA1 cells is “reduces the effectiveness of treatment”. Also, the “apolipoprotein A1 expression levels” value in the assay on apolipoprotein A1 is “increase in apolipoprotein A1 expression levels”. Besides, the cholesterol flux result in the assay on cholesterol flux (cells overexpressing ABCA1) and in the assay on cholesterol flux (control cells) was “decreases significantly” in each case. Further, in assay [1], the proliferation indices entry is “significantly lower”.

The values above are taken from patent publication US20200378993A1, “MEDICAL USES OF APOLIPOPROTEIN A AND ACTIVATORS THEREOF” (FUNDACIÓN IMDEA ALIMENTACIÓN, priority 2017, published 2020).
